Source: the OligoGym collection
Values joined by “and” are separate entries in the source; they are usually repeats but may differ in a detail not shown here. Equal entries are not always repeated. After the bases stand the sugars from the 5' end (letter, count) and the backbone: PS all phosphorothioate, else s phosphorothioate and o phosphodiester by linkage. Methylation of C is not given here. [mop] = methoxypropylphosphonate linkage; e = 2'-O-(2-methoxyethyl) (MOE); k = constrained ethyl (cEt); d = 2'-deoxy (DNA)

Key:
[1] = biological target: KRAS; settings: ASO
[2] = biological target: IRF5; settings: ASO

| Sequence | target mRNA inhibition ([1]; A431, 2 µM) | target mRNA inhibition ([2]; KARPAS-229, 4 µM) | further results |
| --- | --- | --- | --- |
| TTTAAAAAAAAAATTA (sugars k3 d10 k3, PS) | 3% | – | – |
| AGGAGTCTTTATAGTA (sugars kkddddddddddkeke, PS) | 40% | – | – |
| GTCCAGTGATACTTTC (sugars kdddddddddkekeke, PS) | 20% | – | – |
| GCAGTGTGACTCAGTT (sugars k3 d10 k3, PS) | 48% | – | – |
| AGATTGTGCTGAGCTT (sugars kkkddddddddkdkdk, PS) | 42% | – | – |
| ACCATTCAAAGTTCAC (sugars kddddddddddkekek, PS) | 18% | – | – |
| GGAGTCTTTATAGTAA (sugars kkkddddddddkekek, PS) | 0% | – | – |
| TGGTGTAACATAGGTT (sugars kkdddddddddkekek, PS) | 62% | – | target mRNA inhibition ([1]; A431, 0.185 µM): 21%; target mRNA inhibition ([1]; A431, 0.556 µM): 45%; target mRNA inhibition ([1]; A431, 1.667 µM): 66%; target mRNA inhibition ([1]; A431, 5 µM): 83% |
| CTCTTGATTTGTCAGC (sugars k3 d10 k3, PS) | – | – | target mRNA inhibition ([1]; A431, 0.037 µM): 66%; target mRNA inhibition ([1]; A431, 0.125 µM): 64% and 57%; target mRNA inhibition ([1]; NCI-H460, 0.037 µM): 55.4% |
| CAGTGTGACTCAGTTA (sugars kkddddddddkekekk, PS) | 63% | – | target mRNA inhibition ([1]; A431, 0.185 µM): 0%; target mRNA inhibition ([1]; A431, 0.556 µM): 36%; target mRNA inhibition ([1]; A431, 1.667 µM): 58%; target mRNA inhibition ([1]; A431, 5 µM): 67% |
| ATTACTTATGCAGAGA (sugars k3 d10 k3, PS) | 60% | – | – |
| TGCAGTGTGACTCAGT (sugars k3 d10 k3, PS) | 55% | – | – |
| GGTGTAACATAGGTTA (sugars kddddddddddkekek, PS) | 64% | – | target mRNA inhibition ([1]; A431, 0.185 µM): 15%; target mRNA inhibition ([1]; A431, 0.556 µM): 39%; target mRNA inhibition ([1]; A431, 1.667 µM): 62%; target mRNA inhibition ([1]; A431, 5 µM): 80% |
| AAGATGGTGTAACATA (sugars k3 d10 k3, PS) | 30% | – | – |
| TAGTTTCCATTGCCTT (sugars k3 d10 k3, PS) | 16% | – | – |
| TGTGAAACTCTCTATG (sugars k3 d10 k3, PS) | 4% | – | – |
| ATTGTTTAAAAAAAAA (sugars k3 d10 k3, PS) | 0% | – | – |
| TCCATTTATGTGACTA (sugars kkkdddddddddkeke, PS) | 8% | – | – |
| CAGTGTGACTCAGTTA (sugars k3 d9 k3 e1, PS) | 42% | – | – |
| AAAACAAATGCTAATA (sugars k3 d10 k3, PS) | 12% | – | – |
| TTAGGGGAATTACAAG (sugars k3 d10 k3, PS) | 23% | – | – |
| CTATTCATACCAGGTT (sugars k3 d10 k3, PS) | 33% | – | – |

| Sequence | target mRNA inhibition ([1]; A431, 2 µM) | target mRNA inhibition ([2]; KARPAS-229, 4 µM) | further results |
| --- | --- | --- | --- |
| GATTGTGCTGAGCTTG (sugars kkddddddddddkeke, PS) | 19% | – | – |
| TAATTACTTATGCAGA (sugars k3 d10 k3, PS) | 17% | – | – |
| TCTGTCTATTCATACC (sugars k3 d10 k3, PS) | 12% | – | – |
| CCAGTGATACTTTCAC (sugars kddddddddddkekek, PS) | 0% | – | – |
| GTCCAGTGATACTTTC (sugars kkkdddddddddkeke, PS) | 33% | – | – |
| GTGTAACATAGGTTAA (sugars k3 d10 k3, PS) | 30% | – | – |
| AGTGATTAGGTCAAAT (sugars k3 d10 k3, PS) | 23% | – | – |
| AGTGTTTATGCAATGT (sugars k3 d10 k3, PS) | 69% and 50% | – | target mRNA inhibition ([1]; A431, 0.185 µM): 27% and 9%; target mRNA inhibition ([1]; A431, 0.556 µM): 46% and 21%; target mRNA inhibition ([1]; A431, 1.667 µM): 65% and 46%; target mRNA inhibition ([1]; A431, 5 µM): 83% and 67% |
| TAAAACAAATGCTAAT (sugars k3 d10 k3, PS) | 5% | – | – |
| GATTTGTCAGCAGGAC (sugars k3 d10 k3, PS) | 47% | – | target mRNA inhibition ([1]; A431, 0.037 µM): 68%; target mRNA inhibition ([1]; A431, 5 µM): 96% and 93%; target mRNA inhibition ([1]; NCI-H460, 0.037 µM): 60.1% |
| TGAATTAGTCTCCATT (sugars k3 d10 k3, PS) | 17% | – | – |
| CCAGTGTTAAGAGAAC (sugars kkkddddddddkekek, PS) | 37% | – | – |
| ATGCAATGTTAATTTA (sugars k3 d10 k3, PS) | 9% | – | – |
| TGCTGTGAAACTCTCT (sugars k3 d10 k3, PS) | 27% | – | – |
| CAAATGCTAATAATTT (sugars k3 d10 k3, PS) | 0% | – | – |
| TACTTATGCAGAGAAA (sugars k3 d10 k3, PS) | 0% | – | – |
| CAGTATTAACACAGAA (sugars k3 d10 k3, PS) | 7% | – | – |
| GCTAATAATTTAGTGT (sugars k3 d10 k3, PS) | 18% | – | – |
| GGTGTATTTCCCTGTC (sugars kkkdddddddddkeke, PS) | – | 0% | – |
| GTCATGGAATTTTGTG (sugars k3 d10 k3, PS) | – | 54% | – |
| GTTATCTCCGTTCCTGG (sugars kddddddddddkekekd, PS) | – | 0% | – |
| TTATTTCTGCTCCAGG (sugars kekdddddddddeekk, PS) | – | 56% and 80% | target mRNA inhibition ([2]; KARPAS-229, 0.44444 µM): 53%; target mRNA inhibition ([2]; KARPAS-229, 1.33333 µM): 69%; target mRNA inhibition ([2]; KARPAS-229, 12 µM): 86% |

| Sequence | target mRNA inhibition ([1]; A431, 2 µM) | target mRNA inhibition ([2]; KARPAS-229, 4 µM) | further results |
| --- | --- | --- | --- |
| AGGTTCTTGGACTCTC (sugars kdddddddddkekeke, PS) | – | 0% | – |
| GTTATCTCCGTCCTGG (sugars kkddddddddddkeke, PS) | – | 0% | – |
| TCTTGACCTCCCGCTG (sugars kddddddddddkekek, PS) | – | 46% | – |
| ATCTGATATGATACCT (sugars k3 d10 k3, PS) | – | 36% | – |
| TCTGATATGATACCTA (sugars k3 d10 k3, linkages s4 [mop]1 s10) | – | – | target mRNA inhibition ([2]; A-431, 0.00412 µM): 10%; target mRNA inhibition ([2]; A-431, 0.01225 µM): 14%; target mRNA inhibition ([2]; A-431, 0.03704 µM): 43%; target mRNA inhibition ([2]; A-431, 0.11111 µM): 66%; target mRNA inhibition ([2]; A-431, 0.33333 µM): 80%; target mRNA inhibition ([2]; A-431, 1 µM): 87% |
| AGGTTCTTGGACTCTC (sugars kkkddddddddkekek, PS) | – | 8% | – |
| TTCTGCAGGGAGTCAG (sugars kkddddddddkekekk, PS) | – | 0% | – |
| ATGAGTCATGGGCTGA (sugars kkkddddddddkekek, PS) | – | 0% | – |
| ACCATTCTATGCCTTT (sugars kkkddddddddkdkdk, PS) | – | 11% | – |
| AAGGGCACAGCGCAGG (sugars kkdddddddddkekek, PS) | – | 0% | – |
| GGTCTTTGAGGTCTGG (sugars kkdddddddddkekek, PS) | – | 54% | – |
| TTATCTCCGTCCTGGC (sugars k2 d8 e4 k2, PS) | – | 0% | – |
| TCTGATATGATACCTA (sugars k3 d10 k3, linkages s5 [mop]1 s9) | – | – | target mRNA inhibition ([2]; A-431, 0.00412 µM): 10%; target mRNA inhibition ([2]; A-431, 0.01225 µM): 6%; target mRNA inhibition ([2]; A-431, 0.03704 µM): 38%; target mRNA inhibition ([2]; A-431, 0.11111 µM): 56%; target mRNA inhibition ([2]; A-431, 0.33333 µM): 71%; target mRNA inhibition ([2]; A-431, 1 µM): 77% |
| CATTCTATGCCTTTTA (sugars k3 d10 k3, PS) | – | 24% | – |
| ACCATTCTATGCCTTT (sugars k3 d9 k3 e1, PS) | – | 59% and 61% | target mRNA inhibition ([2]; KARPAS-229, 0.44444 µM): 33%; target mRNA inhibition ([2]; KARPAS-229, 1.33333 µM): 56%; target mRNA inhibition ([2]; KARPAS-229, 12 µM): 75% |
| TATTTCTGCTCCAGGT (sugars k2 d9 e3 k2, PS) | – | – | target mRNA inhibition ([2]; KARPAS-229, 0.44444 µM): 57%; target mRNA inhibition ([2]; KARPAS-229, 1.33333 µM): 71%; target mRNA inhibition ([2]; KARPAS-229, 12 µM): 83% |
| GGAGTGAGACGAGCAA (sugars k2 d8 e4 k2, PS) | – | 17% | – |
| CATTCTATGCCTTTTA (sugars kdddddddddkekeke, PS) | – | 13% | – |
| GCTGTCACATCTCCAC (sugars kdddddddddkekeke, PS) | – | 0% | – |
| AGGTTCTTGGACTCTC (sugars kkdddddddddkdkdk, PS) | – | 36% | – |
| GTGAGTCTCAAACCAG (sugars kddddddddddkekek, PS) | – | 0% | – |
| GGTCTTGACCTCCCGC (sugars kdddddddddkekeke, PS) | – | 35% | – |

| Sequence | target mRNA inhibition ([1]; A431, 2 µM) | target mRNA inhibition ([2]; KARPAS-229, 4 µM) | further results |
| --- | --- | --- | --- |
| GGTCTTGACCTCCCGC (sugars kkdddddddddkekek, PS) | – | 7% | – |
| TGTCTAGTGTCATGGA (sugars kkdddddddddkekek, PS) | – | 44% | – |
| CTTGGTCTTGACCTCC (sugars k3 d10 k3, PS) | – | 41% | – |
| CTTGTCTAGTGTCATG (sugars k3 d10 k3, PS) | – | 58% | – |
| AGCTTGGTCTTGACCT (sugars k3 d9 k3 e1, PS) | – | 10% | – |
| GTGAGTCTCAAACCAG (sugars kkddddddddkekekk, PS) | – | 9% | – |
| GAATTTTGTGACTGTA (sugars k3 d10 k3, PS) | – | 57% and 67% | target mRNA inhibition ([2]; KARPAS-229, 0.44444 µM): 41%; target mRNA inhibition ([2]; KARPAS-229, 1.33333 µM): 66%; target mRNA inhibition ([2]; KARPAS-229, 12 µM): 78% |
| CTTGGTCTTGACCTCC (sugars kddddddddddkekek, PS) | – | 0% | – |
| TCCAATTTTGCATTCC (sugars kkdddddddddkekek, PS) | – | 29% | – |
| AGATGGTGTTATCTCC (sugars kkddddddddddkeke, PS) | – | 0% | – |
| CCCAATGCAACATCCA (sugars k3 d9 k3 e1, PS) | – | 0% | – |
| GGTCTGGCCCTTTTGG (sugars kkkdddddddddkeke, PS) | – | 17% | – |
| AGGAGTGAGACGAGCA (sugars kkddddddddddkeke, PS) | – | 28% | – |
| TCCAATTTTGCATTCC (sugars kkkddddddddkekek, PS) | – | 51% | – |
| CGGTCTTTGAGGTCTG (sugars kkddddddddddkeke, PS) | – | 43% and 46% | target mRNA inhibition ([2]; KARPAS-229, 0.44444 µM): 31%; target mRNA inhibition ([2]; KARPAS-229, 1.33333 µM): 29%; target mRNA inhibition ([2]; KARPAS-229, 12 µM): 57% |
| AGTGAGACGAGCAAAG (sugars k3 d10 k3, PS) | – | 16% | – |
| TGTCACATCTCCACAT (sugars kkddddddddkekekk, PS) | – | 0% | – |
| CCCAATGCAACATCCA (sugars kkddddddddddkeke, PS) | – | 0% | – |
| CAATGCAACATCCATC (sugars kddddddddddkekek, PS) | – | 0% | – |
